Experimental data published in patent US20250312258A1, “2,3-PYRROLIDINEDIONE CONJUGATES AND METHODS OF USING THEREOF” (North Carolina State University, priority 2022, published 2025).
Converted amounts (≈) assume the structure as drawn. Like-named read-outs stand apart in the source and are kept apart here.

Experiments:
MSSA = assay: MIC against MSSA strain panel; assay type: cell-based; settings: Staphylococcus aureus, the 4th table, read-out: MIC
S. pneumoniae = assay: MIC against S. pneumoniae strain panel; assay type: cell-based; settings: Streptococcus pneumoniae, read-out: MIC
E. coli = assay: MIC against E. coli strains; assay type: cell-based; settings: the 4th table
Group B Strep = assay: MIC against Group B Strep strain panel; assay type: cell-based; settings: read-out: MIC
S. aureus 29213 = assay: Broth microdilution MIC, S. aureus 29213; assay type: cell-based, Staphylococcus aureus; settings: Staphylococcus aureus
MRSA = assay: MIC against MRSA strain panel; assay type: cell-based; settings: Staphylococcus aureus, the 4th table, read-out: MIC
ATCC 29212 E. faecalis = assay: MIC against ATCC 29212 E. faecalis; assay type: cell-based; settings: Enterococcus faecalis, ATCC29212, ATCC 29212 E. faecalis, read-out: MIC
MRSA 33591 = assay: Broth microdilution MIC, MRSA 33591; assay type: cell-based; settings: Staphylococcus aureus, read-out: MIC (MRSA 33591)

CCC1C(c2ccc(C(F)(F)F)cc2)=C(O)C(=O)N1CCCNCCCCNC (centres unmarked) [Compound 8]
MIC (MSSA; VGP16-95 MSSA): 1 µg/mL (≈ 2.42 µM)
MIC (MSSA; VGP16-96 MSSA): 0.5 µg/mL (≈ 1.21 µM)
MIC (MSSA; VGP16-97 MSSA): 0.5 µg/mL (≈ 1.21 µM)
MIC (MSSA; VGP16-98 MSSA): 0.5 µg/mL (≈ 1.21 µM)
MIC (MSSA; VGP16-99 MSSA): 1 µg/mL (≈ 2.42 µM)
MIC (MSSA; VGP16-100 MSSA): 1 µg/mL (≈ 2.42 µM)
MIC (MSSA; VGP16-101 MSSA): 1 µg/mL (≈ 2.42 µM)
MIC (MSSA; VGP16-116 MSSA): 1 µg/mL (≈ 2.42 µM)
MIC (MSSA; VGP16-117 MSSA): 1 µg/mL (≈ 2.42 µM)
MIC (S. pneumoniae; ATCC49619, ATCC 49619 S. pneumoniae, CA-MHB w/5% LHB, the 4th table): 0.25 µg/mL (≈ 0.605 µM)
MIC (S. pneumoniae; ATCC49619, ATCC 49619 S. pneumoniae, the 7th table): 0.25 µg/mL (≈ 0.605 µM)
MIC (S. pneumoniae; CO314937 S. pneumoniae, CA-MHB w/5% LHB, the 4th table): 0.25 µg/mL (≈ 0.605 µM)
MIC (S. pneumoniae; CT3-5008 S. pneumoniae, the 7th table): 0.25 µg/mL (≈ 0.605 µM)
MIC (S. pneumoniae; CT3-5803 S. pneumoniae, the 7th table): 0.25 µg/mL (≈ 0.605 µM)
MIC (S. pneumoniae; CT3-8501 S. pneumoniae, the 7th table): 0.25 µg/mL (≈ 0.605 µM)
MIC (S. pneumoniae; CT4-3048 S. pneumoniae, the 7th table): 0.25 µg/mL (≈ 0.605 µM)
MIC (S. pneumoniae; CT4-9046 S. pneumoniae, the 7th table): ≤ 0.125 µg/mL
MIC (S. pneumoniae; CT4-9693 S. pneumoniae, the 7th table): 0.25 µg/mL (≈ 0.605 µM)
MIC (S. pneumoniae; CT5-6541 S. pneumoniae, the 7th table): 0.25 µg/mL (≈ 0.605 µM)
MIC (S. pneumoniae; CT5-8032 S. pneumoniae, the 7th table): 0.25 µg/mL (≈ 0.605 µM)
MIC (S. pneumoniae; CT5-9124 S. pneumoniae, the 7th table): 0.25 µg/mL (≈ 0.605 µM)
MIC (S. pneumoniae; CT6-0670 S. pneumoniae, the 7th table): 0.25 µg/mL (≈ 0.605 µM)
MIC (S. pneumoniae; CT6-7691 S. pneumoniae, the 7th table): 0.25 µg/mL (≈ 0.605 µM)
MIC (S. pneumoniae; CT0200-2241 S. pneumoniae, the 7th table): 0.25 µg/mL (≈ 0.605 µM)
MIC (S. pneumoniae; CT0200-2730 S. pneumoniae, the 7th table): 0.5 µg/mL (≈ 1.21 µM)
MIC (S. pneumoniae; MD77773 S. pneumoniae, CA-MHB w/5% LHB, the 4th table): 0.25 µg/mL (≈ 0.605 µM)
MIC (E. coli; AR-137 E. coli): >64 µg/mL
MIC (E. coli; Escherichia coli, ATCC25922, ATCC 25922 E. coli, read-out: MIC): > 64 µg/mL
MIC (E. coli; Escherichia coli, AR-451 E. coli, read-out: MIC): > 64 µg/mL
MIC (Group B Strep; 2008-57 Group B Strep, the 9th table): 0.25 µg/mL (≈ 0.605 µM)
MIC (Group B Strep; 2008-70 Group B Strep, the 9th table): ≤ 0.125 µg/mL
MIC (Group B Strep; 2008-87 Group B Strep, CA-MHB w/5% LHB, the 4th table): 0.25 µg/mL (≈ 0.605 µM)
MIC (Group B Strep; 2008-115 Group B Strep, the 9th table): 0.25 µg/mL (≈ 0.605 µM)
MIC (Group B Strep; 2009-20 Group B Strep, the 9th table): 0.25 µg/mL (≈ 0.605 µM)
MIC (Group B Strep; 2009-40 Group B Strep, the 9th table): 0.25 µg/mL (≈ 0.605 µM)
MIC (Group B Strep; 2009-43 Group B Strep, the 9th table): ≤ 0.125 µg/mL
MIC (Group B Strep; 2009-51 Group B Strep, the 9th table): ≤ 0.125 µg/mL
MIC (Group B Strep; 2009-57 Group B Strep, the 9th table): 0.25 µg/mL (≈ 0.605 µM)
MIC (Group B Strep; 2009-59 Group B Strep, the 9th table): 0.25 µg/mL (≈ 0.605 µM)
MIC (Group B Strep; 2009-60 Group B Strep, the 9th table): 0.25 µg/mL (≈ 0.605 µM)
MIC (Group B Strep; 2009-61 Group B Strep, CA-MHB w/5% LHB, the 4th table): 0.25 µg/mL (≈ 0.605 µM)
MIC (Group B Strep; 2009-62 Group B Strep, CA-MHB w/5% LHB, the 4th table): ≤ 0.125 µg/mL
MIC (Group B Strep; J4182 Group B Strep, the 9th table): ≤ 0.125 µg/mL
MIC (Group B Strep; J4183 Group B Strep, the 9th table): 0.25 µg/mL (≈ 0.605 µM)
MIC (Group B Strep; J4185 Group B Strep, the 9th table): 0.25 µg/mL (≈ 0.605 µM)
MIC (Group B Strep; J4186 Group B Strep, the 9th table): 0.25 µg/mL (≈ 0.605 µM)
MIC (Group B Strep; J4222 Group B Strep, the 9th table): 0.25 µg/mL (≈ 0.605 µM)
MIC (S. aureus 29213; 29213, read-out: MIC (S. aureus 29213)): 0.25 to 0.5 µg/mL (≈ 0.605 to 1.21 µM)
MIC (S. aureus 29213; ATCC 29213 / MRSA, ATCC 29213 MRSA, the 4th table, read-out: MIC): 1 µg/mL (≈ 2.42 µM)
MIC (S. aureus 29213; ATCC 29213 / MRSA, ATCC 29213 MRSA, the 5th table, read-out: MIC): 1 µg/mL (≈ 2.42 µM)
MIC (MRSA; 6215 MRSA): 1 µg/mL (≈ 2.42 µM)
MIC (MRSA; 6217 MRSA): 0.5 µg/mL (≈ 1.21 µM)
MIC (MRSA; 6218 MRSA): 1 µg/mL (≈ 2.42 µM)
MIC (MRSA; 6220 MRSA): 1 µg/mL (≈ 2.42 µM)
MIC (MRSA; 6231 MRSA): 0.5 µg/mL (≈ 1.21 µM)
MIC (MRSA; AR-978 MRSA): 1 µg/mL (≈ 2.42 µM)
MIC (MRSA; AR-979 MRSA): 0.5 µg/mL (≈ 1.21 µM)
MIC (MRSA; AR-993 MRSA): 1 µg/mL (≈ 2.42 µM)
MIC (MRSA; AR-997 MRSA): 1 µg/mL (≈ 2.42 µM)
MIC (ATCC 29212 E. faecalis; the 4th table): 1 µg/mL (≈ 2.42 µM)
MIC (ATCC 29212 E. faecalis; the 6th table): 4 µg/mL (≈ 9.67 µM)
MIC (MRSA 33591): 0.5 µg/mL (≈ 1.21 µM)
